Where “and” joins values, the source holds several entries; their conditions need not be identical. Equal values may be shown once.
What was measured:
[1] = target: T1, mouse mNectin-4 protein (Mus musculus, UniProt Q8R007); assay: Species specificity ELISA, mouse Nectin-4; format: binding; details: in words
T1 construct: purchased ACRO NE4-M52H3
T1 sequence (Q8R007 31-508): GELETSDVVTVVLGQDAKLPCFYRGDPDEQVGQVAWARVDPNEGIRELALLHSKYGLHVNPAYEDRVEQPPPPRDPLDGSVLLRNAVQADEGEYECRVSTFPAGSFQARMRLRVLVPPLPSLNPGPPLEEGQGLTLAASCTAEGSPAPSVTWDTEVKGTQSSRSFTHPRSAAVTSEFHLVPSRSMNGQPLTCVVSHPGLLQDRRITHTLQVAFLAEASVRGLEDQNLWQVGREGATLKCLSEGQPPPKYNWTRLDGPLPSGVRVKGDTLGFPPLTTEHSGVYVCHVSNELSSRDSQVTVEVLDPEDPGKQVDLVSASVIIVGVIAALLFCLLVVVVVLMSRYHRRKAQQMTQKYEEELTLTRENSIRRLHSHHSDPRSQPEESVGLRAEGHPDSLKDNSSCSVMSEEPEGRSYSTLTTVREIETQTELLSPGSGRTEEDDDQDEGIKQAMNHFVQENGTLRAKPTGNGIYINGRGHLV
Description: The binding of different antibodies to different species of Nectin-4 proteins was detected by ELISA. hNectin-4-His, monkey cNectin-4 protein (ACRO, NE4-C52H4) and mouse mNectin-4 protein (ACRO, NE4-M52H3) were immobilized; antibodies ASG-22, 1F3, 1G8, 3A10, and 10F4 were serially diluted, and HRP-labeled anti-human-Kappa secondary antibody was added for chromogenic reaction.

[2] = system: T-47D cells; assay: Endocytosis efficiency assay by FACS; format: cell-based, human
Description: In this assay, the relative amount of antibodies remaining on the cell surface after co-incubation at 37° C. for a certain period of time was detected by FACS to reflect the endocytosis efficiency. The procedures are briefly described as follows: T-47D cells (human ductal breast cancer cells, derived from the Cell Bank of Chinese Academy of Sciences, Cat.No. TCHu 87); the antibodies of interest were adjusted to 10 µg/mL and co-incubated with the cells on ice for 1 h; the cells were washed 3 times with pre-cooled PBS, and then placed at 37° C. and incubated for 0 h, 2 h and 4 h; 0.2% N3Na was added to stop the endocytosis reaction; the cells were washed with PBS thrice, followed by the addition of the PE-labeled anti-human Fc secondary antibody (Invitrogen 12-4998-82); the cells were incubated at 4° C. for 30 min; the red fluorescence signal was detected on a flow cytometer.

[3] = target: T2, hNectin-4-His (human Nectin-4 extracellular antigen) (Homo sapiens, UniProt Q96NY8); assay: SPR (BIAcore) affinity assay; format: binding
T2 construct: made in house
T2 sequence (Q96NY8 with tags, fused parts or gaps): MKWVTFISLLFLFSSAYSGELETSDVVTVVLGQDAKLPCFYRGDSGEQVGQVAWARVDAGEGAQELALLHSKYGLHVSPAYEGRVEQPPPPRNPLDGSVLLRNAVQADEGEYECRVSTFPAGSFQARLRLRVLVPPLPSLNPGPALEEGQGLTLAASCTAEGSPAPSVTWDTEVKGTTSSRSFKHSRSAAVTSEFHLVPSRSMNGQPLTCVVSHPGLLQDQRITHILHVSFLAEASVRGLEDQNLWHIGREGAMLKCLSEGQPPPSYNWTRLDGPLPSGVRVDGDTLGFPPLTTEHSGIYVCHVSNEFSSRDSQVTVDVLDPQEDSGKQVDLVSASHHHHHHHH
Description: In this study, the affinity of the antibodies for the human Nectin-4 extracellular antigen was detected by surface plasmon resonance (SPR) technique (BIAcore: GE Healthcare, T200).
Capture was performed using a Protein A chip (Cat #29127556, GE Healthcare), and 5 µg/mL antibody dilutions (in HBS-EP+(10×): GE Healthcare, Cat #BR-1006-69, with a working concentration of 1×) were directed through the experimental flow channels (Fc2 and Fc4) at a flow rate of 10 μL/min for 10 s; then, the flow rate was adjusted to 30 μL/min, the hNectin-4-His dilutions at different concentrations (0 nM, 1.23 nM, 3.7 nM, 11.1 nM, 33.3 nM, and 100 nM) were sequentially added, and simultaneously directed through the surfaces of the experimental flow channels (Fc2 and Fc4) and reference flow channels (Fc1 and Fc3) with an association time of 120 s and a dissociation time of 180 s, and finally, the chip was regenerated in Glycine 1.5.

Substance: ASG-22: reference antibody; heavy chain SEQ ID NO: 5, light chain SEQ ID NO: 6 [reference compound]
- binding to mouse Nectin-4 [1]: weak binding
- Endocytosis rate at 2 h ([2]; Table 14): 49.8%
- Endocytosis rate at 4 h ([2]; Table 14): 74.1%
- MFI (mean fluorescence intensity) 2 h ([2]; Table 14, 37° C.): 53739.06
- MFI (mean fluorescence intensity) 4 h ([2]; Table 14, 37° C.): 27694.23
- Endocytosis rate at 2 h ([2]; Table 15): 35.2%
- Endocytosis rate at 4 h ([2]; Table 15): 35.4%
- MFI (mean fluorescence intensity) 0 h ([2]; Table 15, 37° C., 0 h): 58,591.2
- MFI (mean fluorescence intensity) 2 h ([2]; Table 15, 37° C.): 37,973.0
- MFI (mean fluorescence intensity) 4 h ([2]; Table 15, 37° C.): 37,844.0
- Ka ([3]; Table 12, association rate): 723000 M⁻¹ s⁻¹
- Kd ([3]; Table 12, dissociation rate): 0.00436 s⁻¹
- ka ([3]; Table 13): 577000 M⁻¹ s⁻¹ and 540000 M⁻¹ s⁻¹
- kd ([3]; Table 13): 0.00581 s⁻¹ and 0.0059 s⁻¹

From US20260144882A1, “ANTI-NECTIN-4 ANTIBODY DRUG CONJUGATE AND USE THEREOF” (Bio-Thera Solutions, Ltd., priority 2022, published 2026)
